In paper PMC6701825, “Antiproliferative and Antimigratory Effects of a Novel YAP–TEAD Interaction Inhibitor Identified Using in Silico Molecular Docking” (Journal of Medicinal Chemistry, 2019):

Legend:
CCN1 protein = assay: Western blotting of CCN1 protein in VSMC lysates; type: cell-based; settings: indicated concentrations, 16 hr
Protocol: Figure 9 Compound 3.1 inhibits TEAD target gene expression, cell proliferation, and cell migration in RaVSMCs. RaVSMCs stably transduced with TEAD-NLUC (A) or transiently transfected with CCN1-LUC or CTGF-LUC were treated with the indicated concentrations of compound 3.1 for 6 hr. Cell conditioned media (A) or cell lysates (B−C) were assayed for nanoluciferase or fire-fly luciferase activity, respectively. VSMC were treated with 60 μM compound 3.1 for 6 h (n = 3). Total RNA was analyzed for mRNA levels of TEAD-target genes (D) or constitutive housekeeping genes (E) by qRT-PCR. VSMC were treated with indicated concentrations of compound 3.1 for 16 hr (n = 4). Total cell lysates were analyzed for CCN1 protein expression by Western blotting (F). RaVSMCs (G) or HuVSMC (H) were treated with indicated concentrations of compound 3.1 for 18 h followed by labeling in 10 μM EdU for a further 6 h (n = 4). RaVSMCs (I) or HuVSMC (J) were treated with indicated concentrations of compound 3.1 and cell migration quantified using IncuCyte real time migration assay (n = 4).
Extracted samples were separated by 4–12% SDS-polyacrylamide gel electrophoresis (Bio-Rad) and transferred to poly(vinylidene difluoride) membranes (GE Healthcare). Membranes were blocked in 5% low-fat milk in 10 mM Tris pH 7.6, 150 mM NaCl, 0.2% Tween. […]

[1] = target: T1, recombinant TEAD1 (residues 194-411) (Homo sapiens, UniProt P28347); assay: Saturation transfer difference (STD) NMR binding to TEAD1; settings: 2 mM CPD3.1, approximately 20 μM TEAD1
T1 construct: TEAD1 protein (residues 194–411) was prepared by solution cleavage of the GST tag; GST (N, cleaved yes); made in house; host or cells: SoluBL21 Escherichia coli
Protocol: Figure 6 Saturation transfer difference (STD) NMR analysis of compound 3.1 binding to TEAD1. Saturation-Transfer Difference (STD) NMR spectra showing the binding of CPD3.1 to recombinant TEAD1. (A) reference 1H NMR spectra of a mixture of CPD3.1 and TEAD1. (B) and (C) show the STD spectra of CPD3.1 in the absence and presence of TEAD1. The asterisk indicates buffer components or impurities in the sample. The three spectra were recorded in PBS made up in 40% H2O/60% D2O acquired at 700 MHz. The concentration of CPD3.1 was 2 mM, whereas the final concentration of TEAD1 was approximately 20 μM.
Binding of compounds to human TEAD was performed using STD NMR analysis. Briefly, TEAD1 protein (residues 194–411) was prepared by solution cleavage of the GST tag from recombinant GST–TEAD1 (194–411). GST–TEAD1 protein was eluted from glutathione beads by 40 mM reduced glutathione. GST tag was removed by incubation with PreScission protease (Sigma-Aldrich) at 4 °C for 18 h. Glutathione was removed by dialysis against 1000 volumes of 1× PBS at 4 °C for 4 h. Free GST protein was removed by incubation with glutathione resin. All NMR spectroscopy experiments were performed on a Bruker Avance III HD 700 MHz spectrometer equipped with a 1.7 mm inverse triple-resonance microcryocoil probe. NMR samples were prepared in 40 μL with PBS pH 7.4 in 60% D2O (uncorrected for D2O). […]

[2] = test system: TEAD-independent minimal TNT1 gene promoter; assay: Minimal TNT1 promoter-luciferase (minP-LUC) reporter in RaVSMCs; type: cell-based, rat; settings: 6 h
Protocol: Figure 3 Compound 3 inhibits TEAD target gene expression, cell proliferation, and cell migration. HeLa cells (A) and RaVSMCs (B) were transfected with CCN1-LUC, CTGF-LUC or minimal promoter-LUC (minP-LUC) reporter plasmids and treated with indicated concentrations of compound 3 for 6 h. Cell lysates were assayed for fire-fly luciferase activity (n = 3). HeLa cells (C) and RaVSMCs (D) were treated with indicated concentrations of compound 3 for 18 h, followed by a 6 h labeling with 10 μM EdU (n = 4). HeLa cells (E) and RaVSMCs (F) were treated with the indicated concentrations of compound 3 and migration quantified using a real-time IncuCyte scratch wound assay (n = 4). * = p < 0.05, ** = p < 0.01, *** = p < 0.001.
TNT1-minP reporter containing the Troponin-T minimal promoter was generated by digesting 8xGTIIC-luciferase plasmid (Addgene #34615) with Kpn1 and BglII to remove the TEAD elements, followed by blunt end re-ligation. A 2.177 kb fragment of the human CCN1 promoter containing two proximal TEAD elements (Hg19;chr1:86044316–chr1:86046493) was described previously[39] and cloned into pGL4-luciferase (Promega). The proximal promoter regions of the CTGF (Hg19;chr6:132272455–132272687) promoter, containing a consensus TEAD-binding element, was amplified by PCR from human genomic DNA and cloned into the Kpn1 and Nhe1 sites of pGL4-luciferase. […]

T1 sequence (P28347 209-426): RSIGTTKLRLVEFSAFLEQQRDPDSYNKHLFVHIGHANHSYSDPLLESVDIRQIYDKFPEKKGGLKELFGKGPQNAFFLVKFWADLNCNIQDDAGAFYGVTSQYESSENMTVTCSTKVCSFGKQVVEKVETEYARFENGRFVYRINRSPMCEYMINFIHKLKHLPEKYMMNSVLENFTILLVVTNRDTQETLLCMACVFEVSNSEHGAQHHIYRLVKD

## Cc1ccc2c(c1)c1c3n2CCNC3CCC1 (stereo not drawn) [CPD3.1]
CCN1 protein
  CCN1 protein levels (Western blot): inhibited the expression of CCN1 protein levels
[1]
  binding to purified recombinant TEAD protein (STD NMR): confirmed

## Cc1ccc2c(c1)c1c3n2CCN(CC(O)CN2CCN(C(=O)c4ccco4)CC2)C3CCC1 (stereo not drawn) [CPD3]
[2]
  activity of TEAD-independent minimal TNT1 promoter (minP-LUC): not inhibited by any concentration
